Earlier results, collected in US20030060503A1, “Nutritional supplements for mature pets” (Juvenon, Inc., priority 2000, published 2003).
Where two headings read alike, the source gives them in different places.

Assays:
[1] = test system: carnitine-acetyl-carnitine exchange across the inner mitochondrial membrane
[2] = daily supplements of up to 200 mg for 6-12 months and 100 mg daily for up to 6 y
[3] = test system: senescent myocardium
[4] = test system: programmed cell death, or apoptosis; conditions: through its action in the mitochondria
[5] = test system: aged rats; conditions: supplementation
[6] = test system: oxidant production; conditions: carnitine supplementation
[7] = test system: skeletal muscle; conditions: older individuals (40-73), 20 g/day, one week
[8] = test system: human lymphocytes

Molecule: C[N+](C)(C)C[C@H](O)CC(=O)[O-] [L-carnitine]
- age-related decrease of carnitine-acetyl-carnitine exchange activity [1]: slow or reverse this age-related dysfunction

Molecule: COC1=C(OC)C(=O)C(C/C=C(\C)CC/C=C(\C)CC/C=C(\C)CC/C=C(\C)CC/C=C(\C)CC/C=C(\C)CC/C=C(\C)CC/C=C(\C)CC/C=C(\C)CCC=C(C)C)=C(C)C1=O [Q10, coenzyme Q10]
- adverse effects [2]: No important adverse effects
- recovery of function in older hearts [3]: corrected the age-specific diminished recovery of function in older hearts
- tolerance of senescent myocardium to aerobic and ischemic stress ([3]; human atrial tissue and rats): improves the tolerance of the senescent myocardium to aerobic and ischemic stress
- programmed cell death (apoptosis) [4]: appears to block programmed cell death

Molecule: O=C(O)CCCC[C@@H]1CCSS1 [R-α-lipoic acid]
- ambulatory activity ([5]; aged rats): triple the ambulatory activity of aged rats
- age-related increase in oxidants [5]: significantly lower the age-related increase in oxidants
- glutathione and ascorbic acid levels [5]: restore glutathione and ascorbic acid levels to youthful levels
- mitochondrial membrane potential [5]: restore the age-related decline in mitochondrial membrane potential
- oxygen consumption [5]: reverse the age-related decrease in oxygen consumption

Molecule: C[N+](C)(C)CC(O)CC(=O)[O-] (centres unmarked) [carnitine]
- cell antioxidants [6]: decreased cell antioxidants markedly
- increase in oxidant production [6]: 30%

Molecule: CN(CC(=O)O)C(=N)N [creatine]
- safety (1.5 g-25 g/day for at least a year): safe
- adverse effects (athletes, doses up to 75 grams a day for years): without known adverse effects, aside from weight gain
- skeletal muscle strength and endurance [7]: increased skeletal muscle strength and endurance

Molecule: COc1c(O)c(C)c(C/C=C(\C)CC/C=C(\C)CC/C=C(\C)CC/C=C(\C)CC/C=C(\C)CC/C=C(\C)CC/C=C(\C)CC/C=C(\C)CC/C=C(\C)CCC=C(C)C)c(O)c1OC [ubiquinol-10]
- oxidative damage to DNA [8]: appears to protect human lymphocytes from oxidative damage to DNA

Molecule: acyl-L-carnitine
- age-related decrease of carnitine-acetyl-carnitine exchange activity [1]: slow or reverse this age-related dysfunction
